From patent publication US10889546B2, “Alkynyl pyridine prolyl hydroxylase inhibitor, and preparation method and medical use thereof” (Jiangsu Hengrui Medicine Co., Ltd., priority 2015, dated 2021)

Columns and labels:
EPO = EPO expression at the cellular level (EPO kit); format: cell-based; settings: Hep3B human hepatoma cell, 24 h after administration
Procedure: (§1) The test of the activity of some compounds of the present invention on VEGF at the cellular level and EPO at the cellular level is shown as follows. The method is in accordance with Bioorganic & Medicinal Chemistry Letters 23 (2013) 5953-5957, and the test was carried out by using VEGF and EPO kit respectively 24 h after administration.
(§2) Hep3B Cell: Human Hepatoma Cell

VEGF = VEGF expression at the cellular level (VEGF kit); format: cell-based; settings: Hep3B human hepatoma cell, 24 h after administration
Procedure: as §1, §2
Further: test concentration or dose not given here.

SMILES | Whether it can increase the expression of EPO in cells (EPO) | Whether it can increase the expression of VEGF in cells (VEGF)
COC(=O)CNC(=O)c1ncc(C#Cc2ccccc2)cc1O [Example 6, Methyl 2-(3-hydroxy-5-phenylethynyl)picolinamido acetate] | Yes | Yes
Cc1ccc(C#Cc2cc(O)c(C(=O)NCC(=O)O)nc2C)cc1 [Example 7, 2-(3-Hydroxy-5-p-methylphenylethynyl-6-methyl)picolinamido acetic acid] | Yes | –
COc1ccc(C#Cc2cc(O)c(C(=O)NCC(=O)O)nc2Cl)cc1 [Example 8, 2-(3-Hydroxy-5-p-methoxyphenylethynyl-6-chloro)picolinamido acetic acid] | Yes | Yes
CC(NC(=O)c1ncc(C#Cc2ccc(C3CC3)cc2)cc1O)C(=O)O (stereo not shown) [Example 9, 2-(3-Hydroxy-5-p-cyclopropylphenylethynylpyridine)carboxamido propionic acid] | Yes | Yes
COc1ccc(C#Cc2cnc(C(=O)NCC(=O)O)c(O)c2)cc1 [Example 16, 2-(3-Hydroxy-5-p-methoxyphenylethynyl)picolinamido acetic acid] | Yes | –
COc1cccc(C#Cc2cnc(C(=O)NCC(=O)O)c(O)c2)c1 [Example 17, 2-(3-Hydroxy-5-m-methoxyphenylethynyl)picolinamido acetic acid] | Yes | Yes
N#Cc1ccc(C#Cc2cnc(C(=O)NCC(=O)O)c(O)c2)cc1 [Example 19, 2-(3-Hydroxy-5-p-cyanophenylethynyl)picolinamido acetic acid] | Yes | Yes
N#Cc1ccccc1C#Cc1cnc(C(=O)NCC(=O)O)c(O)c1 [Example 20, 2-(3-Hydroxy-5-o-cyanophenylethynyl)picolinamido acetic acid] | Yes | Yes
CC(=O)Nc1ccc(C#Cc2cnc(C(=O)NCC(=O)O)c(O)c2)cc1 [Example 22, 2-(3-Hydroxy-5-p-acetamidophenylethynyl)picolinamido acetic acid] | Yes | Yes
CN(C)C(=O)c1ccc(C#Cc2cnc(C(=O)NCC(N)=O)c(O)c2)cc1 [Example 23, 2-(3-Hydroxy-5-p-dimethylcarbamoylphenylethynyl)picolinamidoacetamide] | Yes | Yes
CCCCC(=O)Nc1ccc(C#Cc2cnc(C(=O)NCC(=O)OCC3CC3)c(O)c2)cc1 [Example 24, Cyclopropylmethyl 2-(3-hydroxy-5-p-pentanaminophenylethynyl)picolinamidoacetate] | Yes | –
CCCCNC(=O)c1ccc(C#Cc2cnc(C(=O)NCC(=O)OC(C)C)c(O)c2)cc1 [Example 25, Isopropyl 2-(3-hydroxy-5-p-butylcarbamoylphenylethynyl)picolinamidoacetate] | – | Yes
NC(=O)c1ccc(OCC#Cc2cnc(C(=O)NCC(=O)O)c(O)c2)cc1 [Example 52, 2-(3-Hydroxy-5-(3-p-carbamoylphenoxypropyn-1-yl))picolinamido acetic acid] | Yes | –
Cc1nc(C(=O)NCC(=O)O)c(O)cc1C#CCOc1ccc(C2CC2)cc1 [Example 63, 2-(3-Hydroxy-5-(3-p-cyclopropylphenoxypropyn-1-yl)-6-methyl)picolinamido acetic acid] | Yes | –
